The NIST ThermoML archive (doi:10.1021/je801006q)
± gives the expanded uncertainty stated by the source.

Key:
[1] = 101.33 kPa, Liquid
[2] = excess molar enthalpy (molar enthalpy of mixing); xn = mol fraction of the nth substance listed; conditions: 298.15 K, 101 kPa, Liquid, Calvet calorimetry
[3] = xn = mol fraction of the nth substance listed; conditions: 101 kPa, Liquid

CC(C)CO [2-methyl-1-propanol]
[1]
Conditions | mass density [kg/m3] | viscosity [mPa·s]
293.15 K | 801.28 ± 0.47 | 3.943 ± 0.35
298.15 K | 797.74 ± 0.48 | 3.332 ± 0.3
303.15 K | 794.32 ± 0.48 | 2.884 ± 0.26

CC(C)(C)O [2-methylpropan-2-ol]
[1]
Conditions | mass density [kg/m3] | viscosity [mPa·s]
293.15 K | 795.68 ± 0.48 | 5.486 ± 0.46
298.15 K | 780.65 ± 0.51 | 4.436 ± 0.39
303.15 K | 775.76 ± 0.51 | 3.378 ± 0.3

O=C1CCCN1 [2-pyrrolidinone]
[1]
Conditions | mass density [kg/m3] | viscosity [mPa·s]
293.15 K | 1109.84 ± 0.69 | 15.84 ± 1.1
298.15 K | 1106.98 ± 0.68 | 13.07 ± 0.94
303.15 K | 1103.38 ± 0.67 | 10.69 ± 0.79

O=C1CCCN1 [2-pyrrolidinone] + CC(C)CO
[2]
Conditions | excess molar enthalpy [kcal/mol]
x1 = 0.0522 | 0.029 ± 0.000693
x1 = 0.1222 | 0.0512 ± 0.00117
x1 = 0.1812 | 0.065 ± 0.00146
x1 = 0.2451 | 0.0714 ± 0.00158
x1 = 0.3296 | 0.0748 ± 0.00165
x1 = 0.4043 | 0.074 ± 0.00163
x1 = 0.4535 | 0.0711 ± 0.00158
x1 = 0.5022 | 0.0663 ± 0.00148
x1 = 0.5912 | 0.0582 ± 0.00129
x1 = 0.6807 | 0.0489 ± 0.0011
x1 = 0.7402 | 0.043 ± 0.00098
x1 = 0.8466 | 0.0286 ± 0.000693
x1 = 0.9233 | 0.0171 ± 0.000454

[3]
Conditions | mass density, 293.15 K [kg/m3] | mass density, 298.15 K [kg/m3] | mass density, 303.15 K [kg/m3] | viscosity, 293.15 K [mPa·s] | viscosity, 298.15 K [mPa·s] | viscosity, 303.15 K [mPa·s]
x1 = 0.0889 | 824.77 ± 0.45 | 821.28 ± 0.46 | 817.86 ± 0.46 | 3.624 ± 0.32 | 3.033 ± 0.27 | 2.921 ± 0.26
x1 = 0.1776 | 848.94 ± 0.42 | 845.47 ± 0.43 | 842.04 ± 0.43 | 3.381 ± 0.3 | 2.802 ± 0.25 | 2.596 ± 0.23
x1 = 0.2378 | 865.74 ± 0.41 | 862.31 ± 0.41 | 858.86 ± 0.42 | 2.987 ± 0.27 | 2.57 ± 0.23 | 2.409 ± 0.22
x1 = 0.3009 | 883.75 ± 0.39 | 880.34 ± 0.39 | 876.86 ± 0.4 | 2.87 ± 0.26 | 2.483 ± 0.23 | 2.167 ± 0.2
x1 = 0.3978 | 912.12 ± 0.36 | 908.8 ± 0.37 | 905.28 ± 0.37 | 2.787 ± 0.25 | 2.487 ± 0.23 | 1.789 ± 0.17
x1 = 0.4456 | 926.49 ± 0.35 | 923.19 ± 0.35 | 919.66 ± 0.36 | 2.833 ± 0.25 | 2.483 ± 0.23 | 1.75 ± 0.16
x1 = 0.5106 | 946.36 ± 0.33 | 943.11 ± 0.34 | 939.59 ± 0.34 | 3.145 ± 0.28 | 2.736 ± 0.25 | 1.783 ± 0.17
x1 = 0.5844 | 969.46 ± 0.31 | 966.29 ± 0.32 | 962.76 ± 0.32 | 3.686 ± 0.33 | 3.262 ± 0.29 | 2.118 ± 0.19
x1 = 0.6489 | 990.11 ± 0.3 | 987 ± 0.3 | 983.49 ± 0.31 | 4.428 ± 0.39 | 3.966 ± 0.35 | 2.645 ± 0.24
x1 = 0.7126 | 1010.87 ± 0.32 | 1007.83 ± 0.31 | 1004.4 ± 0.31 | 5.569 ± 0.47 | 4.938 ± 0.43 | 3.369 ± 0.3
x1 = 0.7943 | 1038.14 ± 0.38 | 1035.18 ± 0.37 | 1031.8 ± 0.37 | 7.61 ± 0.6 | 6.753 ± 0.54 | 4.876 ± 0.42
x1 = 0.8564 | 1059.36 ± 0.43 | 1056.43 ± 0.43 | 1053.04 ± 0.42 | 9.46 ± 0.71 | 8.552 ± 0.66 | 6.388 ± 0.52
x1 = 0.9126 | 1078.91 ± 0.48 | 1075.98 ± 0.47 | 1072.53 ± 0.47 | 11.57 ± 0.84 | 10.27 ± 0.76 | 8.021 ± 0.62
x1 = 0.9753 | 1100.98 ± 0.53 | 1098.14 ± 0.53 | 1094.58 ± 0.52 | 14.55 ± 1 | 12.91 ± 0.93 | 10.15 ± 0.76
